Test results: PubChem BioAssay AID1996
Values after ≈ are worked out from the molar mass of the structure shown.

Conditions: buffer; pH 7.4; 200.0 µM

Row | Compound | solubility kinetic [µg/mL]
1 | COc1ccc(CC(=O)NCC(C)(C)N2CCOCC2)cc1 | > 46
2 | O=C(NCC1CCCO1)c1cc2c(s1)CCCC2 (centres undefined) | > 39.8
3 | CCOc1cccc(C(=O)Nc2ccc3c(c2)OCCO3)c1 | 27.3 (≈ 91.2 µM)
4 | COC(=O)c1cc(COC(=O)CNC(=O)c2ccc(Br)cc2)oc1C | 6.8 (≈ 16.6 µM)
5 | C#CCOc1ccc(/C=C2/C(=O)ON=C2C)cc1Cl | 32.9 (≈ 119 µM)
6 | CCn1cnc2cc([N+](=O)[O-])ccc21 | > 28.7
7 | Cc1ccc(C(=O)CCC(=O)N2CCC(C(N)=O)CC2)s1 | > 46.3
8 | Cc1cccc(NC(=O)CCN2CCC(C(N)=O)CC2)c1 | 41.1 (≈ 142 µM)
9 | CC1CCN(C(=O)c2ccc(S(=O)(=O)N3CCOCC3)cc2)CC1 | 43.2 (≈ 123 µM)
10 | C=CCn1cnc2c(sc3nc(C)cc(C)c32)c1=O | 6.9 (≈ 25.4 µM)
11 | Cc1cc2c(c(SCC(N)=O)n1)C(=O)OC2 | > 35.7
12 | CC1=C(C(=O)OC2CCCCC2)C(c2ccccc2F)NC(=O)N1 (centres undefined) | 0.5 (≈ 1.5 µM)
13 | CCCCCCCCn1c(=O)c(C(=O)OC)c(N)c2ccccc21 | 0.9 (≈ 2.72 µM)
14 | O=S(=O)(Cc1ccc(Cl)cc1)N1CCCCCC1 | 4.5 (≈ 15.6 µM)
15 | Cc1cc(C(=O)N2CCCC(C(=O)c3cc(F)ccc3F)C2)c(C)o1 (centres undefined) | 42.5 (≈ 122 µM)
16 | O=C(NC1CCCCCC1)C1CCCN(c2ncccn2)C1 (centres undefined) | > 45.4
17 | N#Cc1c(-c2ccc([N+](=O)[O-])cc2)nc2n(c1=O)CCS2 | 14.7 (≈ 49 µM)
18 | CNC(=S)c1cc(C(C)(C)C)c(O)c(C(C)(C)C)c1 | 13.4 (≈ 48 µM)
19 | O=C(Nc1cc(S(=O)(=O)N2CCOCC2)ccc1Cl)c1cc([N+](=O)[O-])ccc1Cl | 2.8 (≈ 6.08 µM)
20 | COc1cc(CCC(=O)NCC2CCCO2)cc(OC)c1OC (centres undefined) | 44 (≈ 136 µM)

Row | Compound | solubility kinetic [µg/mL]
21 | Cc1ccc2c(c1)N(CC(=O)NCC1CCCO1)C(=O)CO2 (centres undefined) | > 45.7
22 | Cc1ccc(-c2nc(C#N)c(NCC3CCCO3)o2)cc1 (centres undefined) | 37 (≈ 131 µM)
23 | Fc1ccc(Nc2ccnc(C(F)(F)F)c2)cc1 | 25.7 (≈ 100 µM)
24 | Cc1ccc(S(=O)(=O)N2CCC(N3CCC(C)CC3)CC2)cc1 | > 50.5
25 | COc1cccc(OCC(=O)NC2CCCCCC2)c1 | > 41.6
26 | CC1CCCC(NC(=O)COC(=O)COc2cccc(F)c2)C1C (centres undefined) | 20.2 (≈ 59.9 µM)
27 | CC(C)C1Cc2[nH]c(=O)c(C#N)cc2CO1 (centres undefined) | > 32.7
28 | CN(Cc1ccco1)C(=O)CCc1nc2sc3c(c2c(=O)[nH]1)CCCC3 | 22.4 (≈ 60.3 µM)
29 | COCCNS(=O)(=O)c1ccc(C)c(C)c1C | 34.9 (≈ 136 µM)
30 | Cc1cccc(N2CCN(Cc3cnc(Cl)s3)CC2C)c1 (centres undefined) | 23.4 (≈ 72.7 µM)
31 | O=C1NC2(CCCCCC2)N=C1c1ccc(Br)cc1 | 0.9 (≈ 2.8 µM)
32 | COC(=O)c1ccc(NC(=O)C2C3C=CC(C3)C2C(=O)O)cc1 (centres undefined) | > 47.3
33 | COc1ccc2[nH]c3c(=O)n(Cc4ccncc4)cnc3c2c1 | 7.3 (≈ 23.8 µM)
34 | C=CCS(=O)(=O)N1CCCC(N(C)CCc2ccc(OC)c(OC)c2)C1 (centres undefined) | 44.4 (≈ 116 µM)
35 | CCOc1ccc(N2C(=O)C3C4C=CC([C@H]5CC45)[C@@H]3C2=O)cc1 (some centres undefined) | 8.5 (≈ 27.5 µM)
36 | Cc1noc(C)c1CN1C(=O)c2ccc([N+](=O)[O-])cc2C1=O | > 45.2
37 | N#C/C(=C\c1ccccc1Br)C(=O)NC1CC1 | > 43.7
38 | CC(C)(C)N1CC(C(=O)Nc2cccc(Cl)c2Cl)CC1=O (centres undefined) | > 49.4
39 | CC1(C)Cc2sc3c(=O)[nH]c(=S)[nH]c3c2CO1 | > 40.3
40 | Cc1ccc(C(=O)NCC(=O)N2CCCCCC2)cc1 | > 41.2

Row | Compound | solubility kinetic [µg/mL]
41 | CCOC(=O)N1CCN(c2ccncc2S(=O)(=O)N2CCCCC2)CC1 | > 57.4
42 | CC1CCC(NC(=O)C(C)N2C(=O)C3CCCCC3C2=O)CC1 (centres undefined) | > 48.1
43 | CC1CN(C(=O)COC(=O)Cc2c(Cl)cccc2Cl)CC(C)O1 (centres undefined) | > 54
44 | CC(C(=O)Nc1ccc(C(F)(F)F)cc1)N(C)CC(=O)N1CCN(Cc2ccccc2)CC1.O=C(O)C(=O)O (centres undefined) | 52.1
45 | CCNC(=S)N1CCn2cccc2C1c1cccnc1 (centres undefined) | 41 (≈ 143 µM)
46 | O=C1Cc2cc(S(=O)(=O)NCc3ccc(F)cc3)ccc2N1 | 16.7 (≈ 52.1 µM)
47 | Cn1ncc([N+](=O)[O-])c1C(=O)NC1CCCCC1 | > 37.8
48 | CCc1oc(C(=O)OC)cc1CSC(=N)N.Cl | 41.4
49 | CC(C)(C)c1cc(NC(=O)c2cccs2)no1 | 32.7 (≈ 131 µM)
50 | COc1ccccc1NC(=O)NC1CCCCCCC1 | 2.7 (≈ 9.77 µM)
51 | Cc1ccc(S(=O)(=O)N2CCN(CC(=O)N3CCCC3)CC2)c(C)c1 | > 54.8
52 | COc1cc(OC)c(CNC2CCCCCC2)cc1Br | > 51.3
53 | COc1ccc(C)cc1NC(=O)c1ccc(OCc2c(C)noc2C)cc1 | 0.9 (≈ 2.46 µM)
54 | COc1ccc(C2CN(C)CC2C(=O)c2ccc(C)cc2)cc1Cl (centres undefined) | 40.1 (≈ 117 µM)
55 | CCC1(C)Cc2ccccc2-c2nc(SC)[nH]c(=O)c21 (centres undefined) | < 0.3
56 | CCc1c(-c2ccccc2)nc2sc3c(c2c1N)CCCC3 | < 0.3
57 | O=C(COC(=O)C12CC3CC(CC(C3)C1)C2)Nc1nccs1 | < 0.3
58 | COc1ccc(N=CC=C2OC(C)(C)C(C)(C)O2)cc1OC.Cl | 47.1

More lines, now with the values ahead:

Row | solubility kinetic [µg/mL] | Compound
59 | > 47.8 | Cn1ccnc1C(OC(=O)c1ccc(Cl)cc1)C(F)(F)F (centres undefined)
60 | 45.3 (≈ 140 µM) | COc1cccc(-n2c(=S)[nH]c3c(oc4ccccc43)c2=O)c1
61 | > 46.1 | O=C(COC(=O)COc1ccccc1F)NCc1ccco1
62 | > 41.5 | Cc1nc2ccsc2c(=O)n1-c1cccc(Cl)c1
63 | 8.2 (≈ 27.1 µM) | CC1CCCCC1NC(=O)CN1C(=O)COc2ccccc21 (centres undefined)
64 | 18.1 (≈ 68.5 µM) | Cc1ccc(O)c(CNc2cnc3ccccc3c2)c1
65 | 64.3 (≈ 138 µM) | O=C(CSc1nc2ccccc2c(=O)n1CCCN1CCOCC1)NCCc1ccccc1
66 | 49.1 (≈ 140 µM) | CN(C)C(=O)c1ccc(NC(=O)c2sccc2-c2ccccc2)cc1
67 | 7 (≈ 26.6 µM) | O=S(=O)(Cc1ccccc1)N(O)c1ccccc1
68 | 34.2 (≈ 117 µM) | S=C(Nc1ccccc1)Nc1ccccc1-n1cccc1
69 | > 39.2 | O=C(O)C1CCN(C(=O)CCc2ccccc2)CC1
70 | > 55.3 | O=C(O)c1cccc(S(=O)(=O)Nc2ccc(Cc3ccncc3)cc2)c1
71 | > 73.7 | Cc1ccc([N+](=O)[O-])cc1S(=O)(=O)Nc1cccc(S(=O)(=O)Nc2ccccc2C(=O)O)c1
72 | 3 (≈ 7.94 µM) | Cc1ccc(-n2ccnc(SCC(=O)NC3CCCC3)c2=O)cc1Cl
73 | 0.2 (≈ 0.641 µM) | Cc1cc(Nc2ccc(Cl)cc2)nc(-c2ccccc2O)n1
74 | > 38.6 | CC(=O)c1c(C)[nH]c(C(=O)Nc2ccccn2)c1C
75 | > 39.5 | Cc1nc([N+](=O)[O-])cn1CC(=O)c1ccc(F)cc1
76 | 39 (≈ 113 µM) | COc1cc2c(cc1OC)CN(CC(=O)Nc1ccc(F)cc1)CC2
77 | > 38.7 | NC(=O)Cn1c(-c2nonc2N)nc2ccccc21
78 | 6.4 (≈ 24 µM) | Cc1ccc(NC(=O)c2oc3ccccc3c2C)nc1
79 | 42.8 (≈ 149 µM) | CCCC(=O)Nc1cc(C)c(NC(=O)c2ccco2)cn1

Row | solubility kinetic [µg/mL] | Compound
80 | 42.5 (≈ 144 µM) | CCCN1C(=O)CC(Sc2ncccc2C(=O)O)C1=O (centres undefined)
81 | > 45 | O=C(Oc1ccccc1)N1CCN(C(=O)c2ccco2)CC1
82 | < 0.3 | Cc1ccc(NC(=O)NCCCCc2ccccc2)cc1
83 | 30.5 (≈ 82.6 µM) | COc1ccccc1CCC(=O)OCC(=O)Nc1ccc2[nH]c(=O)[nH]c2c1
84 | 3.8 (≈ 13 µM) | Cc1cc(C)c(C#N)c(N2CCN(c3ccccc3)CC2)n1
85 | 0.9 (≈ 2.93 µM) | CC(=O)Oc1ccc2nc(/C=C/c3ccccc3)oc(=O)c2c1
86 | 1.4 (≈ 3.51 µM) | O=C(NCC(=O)N1CCN(Cc2ccc3c(c2)OCO3)CC1)c1ccccc1F
87 | > 45.1 | CC(NC(=O)CN(C)Cc1cccc(F)c1)c1ccccc1 (centres undefined)
88 | 2.8 (≈ 8.71 µM) | Cc1cc(CNC(=O)c2cccc([N+](=O)[O-])c2)c2ccccc2n1
89 | 31.7 (≈ 109 µM) | CC(C)Cc1ccc(S(=O)(=O)Nc2ccccn2)cc1
90 | 19.4 (≈ 98.9 µM) | Cc1[nH]c2c(ccc3cccnc32)c1C
91 | > 41 | Cc1cccc(C(=O)OCC(=O)NCc2ccco2)c1
92 | 53.9 (≈ 146 µM) | Cn1c(=O)c2c(nc(N3CCOCC3)n2CCc2ccccc2)n(C)c1=O
93 | > 39.5 | CC(C)NC(=O)NNc1c(Cl)cncc1Cl
94 | 33.4 (≈ 102 µM) | Cc1cc(-n2c(C)cc(C(=O)CSc3ccccn3)c2C)no1
95 | 0.4 | Cc1cccc2sc(N(CCN(C)C)C(=O)c3ccc4ccccc4c3)nc12.Cl
96 | 3.4 (≈ 12.2 µM) | Oc1ccc(Br)cc1CNc1ccccn1
97 | 17.1 (≈ 52.9 µM) | Cc1nc([N+](=O)[O-])cn1CC(O)c1ccc(-c2ccccc2)cc1 (centres undefined)
98 | 12 (≈ 35.9 µM) | O=S(=O)(Nc1ccc(N2CCCCC2)cc1)c1ccccc1F
99 | > 46.2 | O=C(CCC(=O)Nc1ccccc1Cl)NN=C1CCCC1
100 | > 37.1 | Cc1nc([N+](=O)[O-])cn1CC(O)c1ccccc1 (centres undefined)

Row | solubility kinetic [µg/mL] | Compound
101 | > 50 | O=C(Nc1nccs1)C1CC(=O)N(CCc2ccc(F)cc2)C1 (centres undefined)
102 | 22 (≈ 60.4 µM) | CCOc1cccc(C(=O)Nc2cc(C)ccc2NC(=O)c2ccco2)c1
103 | > 43.1 | C[C@H](NC(=O)Nc1cccc(Br)c1)C(=O)O
104 | 17 (≈ 56.2 µM) | COc1cc([N+](=O)[O-])ccc1NC(=O)NCc1cccnc1
105 | > 43.4 | O=C(O)c1ccccc1CSc1ncccc1C(=O)O
106 | > 44.9 | CCCN(CCC)C(=O)CC(c1ccccc1)c1ccco1 (centres undefined)
107 | 47 (≈ 129 µM) | O=C(CCN1C(=O)COc2ccccc21)N1CCN(c2ccccc2)CC1
108 | > 41.9 | Cn1cc(-c2ccccc2C(=O)O)c(=O)c2ccccc21
109 | 1.2 (≈ 3.82 µM) | S=C(NCc1ccccc1)NC1CCSc2ccccc21 (centres undefined)
110 | 43.3 (≈ 140 µM) | CC(C)NC(=O)CCc1nc2cccnc2n1-c1ccccc1
111 | 8 (≈ 26.6 µM) | COc1ccc(C(=O)CSc2ncnc3nc[nH]c23)cc1
112 | 46 (≈ 135 µM) | CCN(CC(=O)Nc1ccccc1OC)C(=O)CCc1ccccc1
113 | > 47.7 | COCCNc1ncnc2c1cnn2Cc1ccccc1Cl
114 | > 42.4 | Cc1ccccc1C(=O)N1CCN(c2ncccn2)CC1
115 | 2.6 (≈ 7.55 µM) | COc1ccc(NC(=S)N(C)CC2COc3ccccc3O2)cc1 (centres undefined)
116 | 10.5 (≈ 33.9 µM) | COc1ccc2c(c1)C(=O)N(Cc1ccccc1)C(=O)C2(C)C
117 | > 52.6 | O=C1OC(NCc2cccnc2)(c2ccc(Cl)cc2)c2ccccc21 (centres undefined)
118 | > 46.6 | CCn1cc(CNC(=S)Nc2cccc3ccccc23)cn1
119 | 4.1 (≈ 12.1 µM) | COc1ccc(CCOC(=O)c2ccc(NC(=O)CC#N)cc2)cc1
